Consider 2 molecules from patent US7943583B2, “2-O-(β-D-glucopyranosyl) ascorbic acid, process for its production, and foods cosmetics containing compositions comprising it” (Suntory Holdings Limited, priority 2001, dated 2011).

The conditions of data set [1]: rats; cited from earlier work.
Data set [2] has as its system human skin epidermal keratinocytes (HaCaT). The data set is described as follows: Intracellular ascorbic acid concentration in human skin epidermal keratinocytes (HPLC). Particulars: 100 μM, 3-24 hours after addition, compared with 2-O-(α-D-glucopyranosyl)ascorbic acid and ascorbic acid. In kind it is cell-based. How it is done:
Human skin epidermal keratinocyte cells HaCaT were plated onto a 100 mm diameter dish at a cell count of 370,000. After 16 hours of culturing, there was added 100 μM of 2-O-(β-D-glucopyranosyl)ascorbic acid dissolved in DMEM containing 10% FBS and 40% of 24-hour serum-free HaCaT culture solution. The medium was removed 3-24 hours after the addition, rinsing was performed twice with ice-cooled PBS, and the cell sheet was treated with trypsin to obtain the separated cells. These were suspended in PBS containing 50 μM dithiothreitol (DTT) and rinsed 3 times by centrifugation. The cells received freeze-thawing twice were crushed with a Potter-type teflon homogenizer for 30 sec on the ice. The cell homogenate was centrifuged at 5° C., and supernate thus separated was stored on the ice. The supernatant was subjected to treatment with Molcut (product of Nihon Millipore Co., Ltd.; High-pressure ultrafiltration unit, nominal molecular weight limit (NMWL): 10,000, polyethersulfone membrane), and the amount of intracellular ascorbic acid was analyzed by high performance liquid chromatography (AS-8020 System by Toso Co., Ltd., column: Shodex ODSpak (4.6×150 mm, product of Showa Denko Co., Ltd.), mobile phase: 0.1 M KH2PO4—H3PO4 (pH 2.35)-0.1 mM EDTA-2 Na, flow rate: 1.5 mL/min) using a coulometric electrochemical detector (ESA Co., Bedford, Mass., 200 mV). […]

Data set [3] in a line: Intestinal absorption in rat: portal vein plasma concentrations after oral administration. In kind it is in vivo. The procedure:
A solution of 2-O-(β-D-glucopyranosyl)ascorbic acid in Milli-Q Ultrapure Water (Millipore Corporation) (100 mg/4 mL) was orally administered at a dose of 100 mg/kg by using a feeding tube to overnight-starved and awake 10-week-old male Wistar rats (n=3) purchased from Nihon Charles River Co. After 0, 0.5, 2 and 4 hours, heparinized blood samples were collected from the portal vein and the plasma from each sample was separated by centrifugation (6000×g, 10 min). After addition of an equivalent of ice-cooled 10% metaphosphoric acid (containing 40 mM deferoxamine mesylate), the mixture was centrifuged (10,000×g, 10 min) to obtain protein-removed portal vein plasma, of which the unconverted 2-O-(β-D-glucopyranosyl)ascorbic acid and ascorbic acid concentrations were measured by high performance liquid chromatography (LC-10Ai System by Shimadzu Co., Ltd., Column: Inertsil ODS-3 (GL Science Co., Ltd., 3.0×150 mm, 5 μm), mobile phase: 15% MeOH-17 mM KH2PO4/H3PO4 (pH 3.5)-5 mM tetra-n-amylammonium bromide, flow rate: 0.3 mL/min, column temperature: 35° C., detection wavelength: 254 nm). The unconverted 2-O-(β-D-glucopyranosyl)ascorbic acid and the metabolite (ascorbic acid) were found present in maximum amounts 30 minutes after administration.

The test system of data set [4] is normal human dermal fibroblasts (NHDF). Briefly: Collagen synthesis by normal human dermal fibroblasts ([3H]proline incorporation, collagenase-digestible). In kind it is cell-based. Particulars: 100 μM, 48 hours, compared to 2-O-(α-D-glucopyranosyl)ascorbic acid or ascorbic acid. The procedure: Normal human dermal fibroblast cells (NHDF) were plated onto a 100 mm diameter dish at a cell count of 370,000. After 16 hours of culture, there was added 100 μM of 2-O-(β-D-glucopyranosyl)ascorbic acid dissolved in DMEM medium containing 10% FBS and 40% of 24-hour serum-free NHDF culture solution. After another hour, 0.12 mL (120 μCi) of L-[2,3-^3H]proline was added and culturing was continued for 48 hours. The medium was removed after culturing, and the cell sheet was rinsed 4 times with PBS. The cells were then treated with trypsin, lysed with an alkali, and then neutralized to obtain the intracellular protein. The fraction obtained by digesting this protein with Clostridium collagenase was measured in terms of radioactivity with a liquid scintillation counter using Scintisol EX-H. The intracellular protein fraction not treated with collagenase was also measured in terms of radioactivity using a liquid scintillation counter. The difference in radioactivities was calculated and recorded as the collagen synthesizing activity. For comparison, 2-O-(α-D-glucopyranosyl)ascorbic acid and ascorbic acid were examined in a similar manner, and the results are also shown in FIG. 7.

The test system of data set [5] is NHDF cells. The data set is described as follows: Reduction speed of telomere lengths (TRF Southern blot) in NHDF cells. In kind it is cell-based, human. The procedure:
The TRFs were separated by electrophoresis and the length of the telomere DNA was quantified with a labeled probe specifically binding to telomere. Details of the method used in the study is described in Life Sciences, Vol. 63, No. 11, 935-948 (1998).
The fibroblast cells (NHDF) from human skin epidermis were dispersed by treatment with trypsin, added into a 1.5 ml tube at 10^6/tube, centrifuged for 2 min. at 1,200 rpm at 4° C., and the supernatant was discarded. The pellet was washed two times with 1 ml RNase free PBS(−), the supernatant was removed as sufficiently as possible, and the cells were stored at −80° C. The frozen sample was restored to ambient temperature, genomic DNA was extracted by use of IsoQuick Nucleic Acid Extraction Kit (ORCA Research Inc.). The extracted DNA was dissolved in 10 mM Tris-HCl, 1 mM EDTA, pH8.0 to be stored at 4° C. The DNA content was determined by the fluorescent reader (Cytofluor 2350, Millipore Corporation) with the DNA binding reagent Hoechist 33258, and TRF was prepared by restricted digestion with HinfI treatment. The restricted digestion was carried out as follows. There were added into a 1.5 ml tube, 2 μl of 10× H buffer (TaKaRa, Kyoto), the solution of extracted genomic DNA (2 μg), sterilized water to make up 19 μl, and finally 1 μl of HinfI (6 U/μl, TaKaRa, Kyoto). […]

Data set [6] concerns normal human dermal fibroblast (NHDF) cells. Briefly: Population doubling level (PDL) of normal human dermal fibroblasts. In kind it is cell-based. Particulars: 100 μM. How it is done: Normal human dermal fibroblast (NHDF) cells were plated onto a 100 mm diameter dish at a cell density of 370,000. After 16 hours of culture in DMEM supplied with 10% FBS, the medium was replaced by DMEM fortified with 10% FBS and supplied with 40% of a domestic-conditioned medium containing 100 μM of 2-O-(β-D-glucopyranosyl)ascorbic acid. The cultivation was continued for 46-188 hours until cells reached a near confluent state. The domestic-conditioned medium was prepared by separately culturing NHDF cells to the state of near confluency, which was further cultivated in a serum-free medium for 24 hours, and collecting the culture supernatant, which was stored in a refrigerator and used within 3 days. In connection with the above 46-188 hours of cultivation, the medium was changed every 3 days with fresh DMEM fortified with 10% FBS and supplied with 40% of the domestic-conditioned medium containing 100 μM of 2-O-(β-D-glucopyranosyl)ascorbic acid. When medium change was made, the cell number in the old culture medium was counted and used in the PDL assessment. The number of cells adhering onto the plate was counted by Coulter counter. PDL value at the start of culture was taken as 0, and PDL values thereafter were calculated by the equation: PDL=log2(recovered cell number/seeded cell number). […]

The subject of data set [7] is human skin epidermal keratinocytes (HaCaT). The data set is described as follows: Protecting effect against cell death of HaCaT induced by UVB irradiation (WST-1 viable cell count). The class given is cell-based. The settings on record: compared to ascorbic acid or 2-O-(α-D-glucopyranosyl)ascorbic acid at the same concentration; added at 20-100 μM 2 h before UVB 35 mJ/cm^2. The procedure: The human skin epidermal keratinocyte line HaCaT (a cell line provided by Professor Fusenig of Heidelberg University) was plated on a 24-well plate at 10,000 cells/well with Dulbecco's modified Eagle medium (DMEM) containing 10% fetal bovine serum (FBS) and after 18 hours, the cells were irradiated with UVB (maximum wavelength: 312 nm) at 35 millijoules/square centimeter (mJ/cm^2). Two hours before irradiation, 2-O-(β-D-glucopyranosyl)ascorbic acid was added at 20-100 μM and removed with rinsing just before irradiation. The irradiation was performed in PBS in the absence of chemical agents, after which culturing was continued in DMEM containing 10% FBS, and the viable cell count was determined 24 hours after irradiation by measuring the mitochondrial dehydrogenase activity using 2-(4-iodophenyl)-3-(4-nitrophenyl)-5-(2,4-disulfophenyl)-2H-tetrazolium monosodium salt (WST-1). For comparison, 2-O-(α-D-glucopyranosyl)ascorbic acid and ascorbic acid were examined in a similar manner, and the results are also shown in FIG. 5.
For orientation: Tetrazolium assays rely on reduction of a dye to a coloured formazan, in cell work by metabolically active cells.

Like-named read-outs stand apart in the source and are kept apart here.

In the case of `O=C1O[C@H]([C@@H](O)CO)C(O)=C1O[C@H]1O[C@H](CO)[C@@H](O)[C@H](O)[C@H]1O` [2-O-(α-D-glucopyranosyl)ascorbic acid], the “unconverted form in the blood upon oral ingestion” value in data set [1] is “no detection of the unconverted form in the blood”.

For the molecule `O=C1O[C@H]([C@@H](O)CO)C(O)=C1O[C@@H]1O[C@H](CO)[C@@H](O)[C@H](O)[C@H]1O` [2-O-(β-D-glucopyranosyl)ascorbic acid], the “intracellular ascorbic acid concentration” value in data set [2] is “maintained at a higher concentration for the longest time”. In data set [3] (Wistar rats, oral 100 mg/kg), the “time of maximum amount of unconverted 2-O-(β-D-glucopyranosyl)ascorbic acid in portal vein plasma” value was 30 min. Moreover, the “unconverted form in the blood upon oral ingestion” value in data set [3] (rats, oral) is recorded as “detected in the blood”. Further, the collagen synthesis activity entry in data set [4] was “increased activity”. In addition, the “average reduction speed of telomere length” value in data set [5] (225 bp/PDL in the absence of any ascorbic acid derivative) is recorded as 94 bp/PDL. In addition, in data set [5] (versus no ascorbic acid derivative), the “shortening of the speed of the telomere length to reduce to the critical length” value is “approximately 42%”. Further, in data set [6], the “PDL of NHDF greater than in the absence of ascorbic acid derivative (PDL 20.1)” value worked out at 2.62 times. Also, the “effect of preventing cell death of HaCaT induced by UVB irradiation” value in data set [7] is given as “stronger effect of preventing cell death”.
